# Measurements reported in ChEMBL document CHEMBL4433265, “Discovery of human lactate dehydrogenase 5 inhibitors (hLDH5) with anti-lung cancer activity through an in silico method and biological validation” (Bioorg Med Chem Lett, 2019).
# The source made the active and inactive calls. The rule behind the calls is not given here.
# Columns and labels:
# NCI-H1975 [1] = test: Growth inhibition of human NCI-H1975 cells at 50 uM incubated for 72 hrs by MTT assay; type: functional; conditions: for inhibition of growth at 50 µM: NCI-H1975, 72 h, read-out: GI
# A549 = test: Growth inhibition of human A549 cells at 50 uM incubated for 72 hrs by MTT assay; type: functional; conditions: for inhibition of growth at 50 µM: A549, 72 h, read-out: GI
# [2] = target: T1, L-lactate dehydrogenase A chain (Homo sapiens, UniProt P00338); test: Inhibition of His-tagged human LDHA at 10 uM incubated for 10 mins using NADH and pyruvate by microplate reader based assay
# NCI-H1975 [3] = test: Growth inhibition of human NCI-H1975 cells at 10 uM under normal oxygenated conditions by IncuCyte zoom live cell analysis; type: cell-based; conditions: nci-h1975, 10 µM
# NCI-H1975 [4] = test: Growth inhibition of human NCI-H1975 cells under normal oxygenated conditions by IncuCyte zoom live cell analysis; type: cell-based
# NCI-H1975 [5] = test: Growth inhibition of human NCI-H1975 cells under hypoxic conditions by IncuCyte zoom live cell analysis; type: functional, cell-based
# [6] = target: T1, L-lactate dehydrogenase A chain; test: Binding affinity to His-tagged human LDHA in presence of NAD+ by isothermal titration calorimetry
# [7] = target: T1, L-lactate dehydrogenase A chain; test: Inhibition of LDHA in human NCI-H1975 cells assessed as reduction in lactate production incubated for 4 hrs; type: cell-based
# [8] = target: T1, L-lactate dehydrogenase A chain; test: Binding affinity to His-tagged human LDHA in absence of NAD+ by isothermal titration calorimetry
# [9] = target: T1, L-lactate dehydrogenase A chain; test: Inhibition of His-tagged human LDHA incubated for 10 mins using NADH and pyruvate by microplate reader based assay
# NCI-H1975 [10] = test: Growth inhibition of human NCI-H1975 cells at 10 uM under hypoxic conditions by IncuCyte zoom live cell analysis; type: functional, cell-based
inhibition [2],Structure (SMILES),inhibition of growth at 50 µM (NCI-H1975 [1]),inhibition of growth at 50 µM (A549),growth inhibition (GI) (NCI-H1975 [1]),growth inhibition (GI) (A549),further results
45.8%,O=C(CNC1CCN(c2ncc(F)cn2)CC1)COCc1ccccc1,39.8%,55.3%,–,–,–
100%,O=C1N[C@](c2ccc(N3CCOCC3)cc2)(c2ccsc2)CC(O)=C1Sc1ccccc1Cl,100%,100%,–,–,–
inactive,N#Cc1cccnc1N1CCC(CNC(=O)C(=O)Nc2cccc(C(F)(F)F)c2)CC1,25.9%,33.5%,–,–,–
inactive,COc1cccc(OCC(=O)Nc2ccc3c(c2)NC(=O)C(C)(C)CO3)c1,15.3%,26.9%,–,–,–
78.5%,COc1ccccc1OCC(=O)NC1CCC(Oc2nc(C)cc(C)n2)CC1 (stereo not drawn),45.2%,23.3%,–,–,–
25.7%,COc1cc(=O)n2c(c1CCCc1cc(OC)c(OC)c(OC)c1)CCC2,–,–,inactive,inactive,–
inactive,O=C(c1cc2n(n1)CCCC2)N1CCN(C(=O)C2(c3cccs3)CCCC2)CC1,–,–,inactive,inactive,–
inactive,O=C(c1cc2n(n1)CCCO2)N1CCC(N2CCN(c3ncccc3C(F)(F)F)CC2)CC1,–,–,inactive,inactive,–
95.2%,O=C(NCC(=O)N1CCC(Cc2nc(C3CC3)no2)CC1)c1ccccc1,58.7%,69.3%,–,–,growth inhibition (GI) (NCI-H1975 [3]): Non-Toxic; IC50 (NCI-H1975 [4]): 36.5 µM; IC50 (NCI-H1975 [5]): 5.7 µM; Kd [6]: 1.02 µM; inhibition [7]: Dose-dependent effect; Kd [8]: 43.2 µM; EC50 [9]: 0.7 µM; growth inhibition (GI) (NCI-H1975 [10]): Active
66.3%,Cc1ncn(CC(=O)N2CCC(Oc3cncc(N(C)C)n3)C2)c(=O)c1C (stereo not drawn),–,–,inactive,inactive,–
